Experimental data taken from patent US20220409617A1, “Drug Formulations and Methods of Treatment for Metabolic Disorders” (The Regents of the University of California, priority 2019, published 2022).
“Also recorded” adds a separate entry of the source.

Test system: C16:0 ceramide generation (CerS6)
Assay: C16:0 ceramide levels in palmitate-treated MEFs (UPLC-MS/MS)
Format: cell-based, mouse
Method: Plasma pharmacokinetic analysis of sphingolipid-like compound 893 was performed by Pharmaron Corporation (Beijing, China). C16:0 ceramide levels were quantified in cells using the method described in (T. Kasumov, et al., Anal. Biochem. 401: 154-161, 2010, the disclosure of which is incorporated herein by reference) with minor modifications. Cultured cells were washed twice in PBS and scraped into 250 μL of HPLC grade water and flash frozen until time of analysis. On the day of analysis, samples were thawed, and an aliquot used for protein quantification. For C16:0 ceramide levels in mouse liver, 25 mg of tissue was homogenized in 1 ml of ice-cold PBS using a mechanical probe homogenizer (VWR, Radnor, Pa.), protein levels quantified, and 50 μl of the homogenate diluted with 150 μl HPLC-grade water for C16:0 ceramide analysis. Fifty ng of C17:0 ceramide prepared in ethanol (#22532, Cayman Chemical, Ann Arbor, Mich.) was added into 200 μL of the thawed cell suspension or liver homogenate as an internal standard to control for varying extraction efficiency; 750 μL of an ice-cold 1:2 chloroform/methanol mixture was then added. Samples were sonicated for 30 min and phase separation induced by the addition of 250 μL each of chloroform and HPLC-grade water. Samples were centrifuged at 4° C. for 10 min and the lower lipid phase transferred to a clean tube. The remaining protein and aqueous layers were re-extracted with an additional 500 μL of chloroform. Lipid phases were combined and then dried under vacuum. Dried extract was re-constituted in 100% acetonitrile immediately before analysis. Samples were analyzed by ultra-performance liquid chromatography tandem mass spectrometry (UPLC-MS/MS) using a Waters Micromass Quattro Premier XE equipped with a Waters ACQUITY BEH C4 column (Waters Corp.). Samples were resolved starting at 60% mobile phase A (10 mM ammonium acetate and 0.05% formic acid in water) to 98% mobile phase B (60:40 acetonitrile:isopropanol) over 3 min with a linear gradient, held at 98% B for 1 min, then the column was equilibrated with 60% A for 1 min. The mass spectrometer was operated in positive ion mode with the following parameters: cone voltage 20 V, source temperature 125° C., desolvation temperature 400° C. Ion transition channels for MS/MS were 538→264 for C16:0 ceramide and 552→264 for C17:0 ceramide, both with a dwell time of 285 ms. Standard curves prepared from C16:0 ceramide (#860516, Avanti Polar Lipids, Alabaster, Ala.) dissolved in ethanol were used for quantitation and were linear from 4.1 nM-1,000 nM, with an R^2 of 0.98 or greater.
3T3-L1 cells were maintained in DMEM with 10% FBS and 1% penicillin-streptomycin until induced to differentiate. […]

CCCCCCCCc1ccc([C@H]2CCN[C@@H]2CO)cc1.Cl [compound 893]
Palmitate-induced C16:0 ceramide production (MEFs, 3 h pre-treatment (893 5 μM, myriocin 10 μM, fumonisin B1 30 μM) then palmitate 250 μM 3 h): failed to block C16:0 ceramide generation; also recorded: without blocking palmitate-induced ceramide production | CerS6 inhibition (inferred from C16:0 ceramide generation in palmitate-treated cells): did not inhibit CerS6
